Reference: US20020150553A1, “Compositions containing C-terminal polypeptides of angiogenic chemokines and methods of use” (The Regents of the University of California, priority 1999, published 2002)

Columns and labels:
[1] = Time-dependent release of the 9E3 peptide from methylcellulose pellets; assay type: physicochemical; conditions: 300 ng 125I-labeled peptide in 0.5% methylcellulose pellet, PBS, 37° C.
Description: Samples of 280 μl of saline were removed periodically for scintillation counting and replaced by fresh saline. Error bars represent the standard deviation for 15 samples taken at each time point.
Methylcellulose pellets containing either form of the peptide at different concentrations were placed on mature CAMs [see Martins-Green M, Feugate J E (1998) The 9E3/CEF4 gene product is a chemotactic and angiogenic factor that can initiate the wound healing cascade in vivo. Cytokine 10:522-535]. Because the peptide is much smaller than cCAF itself, it is possible that release from the pellet might be much more rapid than for the entire molecule. Therefore, before performing the experiments on the CAM we determined the kinetics of release of the C-terminal peptide from pellets under reducing conditions for which the peptide will be a monomer and therefore of smallest size.
Five microliters of 0.5% methylcellulose (Fisher) containing 300 ng of ^125I-labeled 9E3 peptide were placed in the bottom of 15 Eppendorf tubes (0.5 ml), allowed to dry and then covered with 300 μl of sterile PBS containing 0.02% sodium azide and incubated at 37° C. […] The label released into the fluid was counted in a scintillation counter to determine if and over what period of time the peptide was released.

[2] = test system: blood vessels of the chorioallantoic membrane (CAM); test: Angiogenesis assays in the CAM (chorioallantoic membrane); assay type: in vivo, chicken; conditions: for percent of blood vessels oriented towards the pellet minus percent directed away: cCAF peptide 100-300 ng; for angiogenesis / oriented blood vessel growth after preincubation with antibody: peptide (100-300 ng) preincubated with excess of an antibody prepared against it; for new sprouting of blood vessels of the CAM: 4 days after application
Description: (§1) These assays were done as previously described [Martins-Green et al. (1998)]. Briefly, fertilized chicken eggs were incubated for 3 days at 37° C., at which time 2 ml of albumin were withdrawn to drop the embryo and CAM away from the shelf. Windows were made on day 4, the holes covered with transparent tape, and the eggs placed back in the incubator until day 10 when the experiment was performed. Pellets were prepared by mixing the appropriate amount of reduced and non-reduced 9E3 peptides or bFGF with 1% methylcellulose (1:1) and then delivering 5-μl droplets on a bacterial dish and allowing them to dry in a sterile hood for approximately 30 min. This procedure generated small disc-shaped pellets 2 mm in diameter and ˜0.1 mm thick. These pellets containing various concentrations of protein were placed, under sterile conditions, between two large blood vessels of the 10-day-old CAMs. Two or four days later, the pellets and the surrounding area of the CAM were fixed in situ; the CAMs were then removed and examined for the presence of chemotaxis and/or angiogenesis. Angiogenesis was quantified by analysis of blood vessel orientation and/or increase in the number of vessels and sprouts (see below). Negative control pellets were prepared in the same way with 0.5% methylcellulose alone or with the same concentration of BSA as used for the cCAF peptide or with peptide preincubated with an antibody made against it [Martins-Green et al. (1992)].
As previously described, 10-day-old CAMs were used because at this stage of development the CAM close to the embryo is fully developed; the blood vessels in this area have stopped growing and assumed a tree-like pattern with short stubby tertiary branches (FIG. 2A). […] [Martins-Green et al. (1997); Vu M T, Smith C F, Burger P C, Klintworth G K (1985) Methods in laboratory investigation. An evaluation of methods to quantitate the chick chorioallantoic membrane assay in angiogenesis. Lab Invest 4:499-508; Klagsbrun M, D'Amore P A (1991) Regulators or angiogenesis. Annu Rev Physiol 53:217-239; Cockerill G W, Gamble J R, Vadas M A (1995) Angiogenesis: models and modulators. Interntl Rev Cytol 1.59:113-160; and Swerlick R A (1995) Angiogenesis. J Dermatol 22:845-852.]
The CAMs were then analyzed by making measurements of the orientation of the blood vessels relative to the pellet. For each concentration of the C-terminal peptide and for all controls, 6-10 CAMs were measured. Vessels were classified (FIG. 2A) as primary (largest), secondary (branches of primary vessels) and tertiary (all other vessels). […] The measurements were made without prior knowledge of which specimens were controls and which were cCAF. For secondary vessels; we looked for deviations in their orientations. For tertiary vessels, each vessel was approximated by a vector pointing in its growth direction. Each vector was resolved into components directed radially and tangentially with respect to the pellet; the definition of toward or away was determined from the radial component of the vector. For graphical presentation of the data, the percent of blood vessels growing toward the pellet was determined for secondary and tertiary vessels (FIG. 5).
Quantification of blood vessel sprouting was performed as described previously [Martins-Green et al. (1998)]. Briefly, a sprout was defined as a very small blood vessel having a length of one third or less that of the tertiary branches of the normal CAM. Sprouts thus defined were counted in the areas of the CAMs with pellets containing 1000 ng of C-terminal peptide. For CAMs treated with 1000 ng/pellet of C-terminal peptide, we counted sprouts on 90 mm total of 21 individual blood vessel segments from 6 different CAMs. For the BSA controls we counted sprouts on 123 mm of 24 segments of blood vessels.

leukocytes = test: Chemotaxis for leukocytes and tissue changes in cross sections of treated CAMs; assay type: in vivo, chicken; conditions: for chemotaxis for leukocytes: 100 ng
Description: The cells inside the large blood vessel are erythrocytes (these chicken cells are nucleated). […] (C) Natural CAM showing sparse cells and a single blood vessel. Scale bars=100 μm.
as §1
Although the general structure of treated and untreated CAMs is the same, some differences were seen.

[3] = test system: blood vessels of wing muscle tissue; test: Angiogenic assays in 2-week-old chicks (peptide deposited under the skin of the wing); assay type: in vivo, chick; conditions: 1 μg/10 μl under the skin of the wing on two consecutive days, four days after first dose
Excerpt: Hematoxylin and eosin stained cross sections of wing muscle tissue showing organization of the muscle fibers. (A) Very few blood vessels (arrowheads) can be seen amongst the untreated muscle fibers. A large nerve bundle can be seen (black dot) associated with three small blood vessels. (B) Similar section taken from the wing of a bird that has been treated with the C-terminus peptide. Note the presence of numerous small blood vessels (arrowheads) amongst the muscle fibers. (C) Similar section from a bird treated with only buffer vehicle for the peptide. The number of blood vessels (arrowheads) is similar to that of the control. Scale bar=50 μm.
To further test the angiogenic potential of the C-terminal peptide, 1 μg of the peptide in 10 μl of water was deposited under the skin of the underside of the wing of 2-week-old chicks on two consecutive days, and the tissues prepared for histology on the fourth day.
The C-terminal peptide was deposited under the skin of the under wing of […] chicks using a procedure described previously [Martins-Green M, Boudreau N, Bissell M J (1994) Inflammation is responsible for the development of wound tumors in RSV-infected newly-hatched chicks. Cancer Res 54:4334-4341]. Two samples of 1 μg/10 μl each, were applied on two consecutive days followed by a waiting period of 3 days. […]

[4] = supernatant of normal cultures of CEFs; cited from earlier work
[5] = higher doses, 600-1000 ng/pellet
[6] = CAM cross sections two days after application of pellets

C-terminal peptide: last 28 aas of the C-terminus of cCAF (residues 76 to 103 of SEQ ID NO:1), with cysteine No. 4 as N-terminal most aa (CLDPTAPWVQLIVKALMAKAQLNSDAPL; Gallusgallus)
duration of slow, prolonged release from the pellet [1]: up to 48 h
period in which the majority of the peptide was released from the pellet ([1]; reducing conditions (monomer)): ≤ 6 h
number of new sprouts relative to CAMs treated with BSA ([2]; 1000 ng/pellet): about 10 times
blood vessel growth towards the pellet ([2]; 100-300 ng per pellet): stimulated the blood vessels to grow towards the pellet
tortuosity and sprouting effects after preincubation with antibody ([2]; 600-1000 ng/pellet, peptide preincubated with excess antibody directed against it): eliminated
percent of blood vessels oriented towards the pellet minus percent directed away ([2]; bFGF 500 ng): marked blood vessel orientation toward the pellet
reorientation of blood vessels [2, 5]: greatly decreased
sprouting of blood vessels [2, 5]: abundant sprouting
tortuosity of blood vessels [2, 5]: marked tortuosity
most effective doses (significant increase in angiogenic activity: tortuosity and sprouting) ([2]; localized administration in CAM assay): > 450 ng
percentage of CAMs showing reorientation and/or growth of blood vessels towards the pellet ([2]; non-reduced peptide): 94%
percentage of CAMs showing reorientation and/or growth of blood vessels towards the pellet ([2]; non-reduced peptide, listed as cCAF peptide): ~100%
angiogenesis / oriented blood vessel growth after preincubation with antibody [2]: the effect was eliminated
angiogenesis / oriented blood vessel growth after preincubation with antibody ([2]; listed as cCAF peptide): no angiogenesis was seen
percentage of CAMs showing reorientation and/or growth of blood vessels towards the pellet ([2]; peptide under reducing conditions): 96%
percentage of CAMs showing reorientation and/or growth of blood vessels towards the pellet ([2]; peptide under reducing conditions, listed as cCAF peptide): ~100%
most effective dose for oriented growth of secondary blood vessels ([2]; per pellet, secondary vessels): ~100 ng
most effective dose for oriented growth of tertiary blood vessels ([2]; per pellet, tertiary vessels): ~300 ng
hyperproliferation of the ectoderm of the CAM (leukocytes; [6]): slightly hyperproliferated
chemotaxis for leukocytes (leukocytes; [6]): no chemotaxis for leukocytes
leukocyte chemotaxis or granulation-like tissue formation (leukocytes; in vivo, CAM and chick wing): no evidence was found
small blood vessels in muscle tissue underlying the site of application versus vehicle and normal wing [3]: many more small blood vessels

IL-8: interleukin 8, ELR-CXC chemokine (SEQ ID NO:3)
new sprouting of blood vessels of the CAM ([2]; 500 ng per pellet): extensive new sprouting

bFGF: Basic fibroblast growth factor, positive control in the CAM assay [reference compound]
percent of blood vessels oriented towards the pellet minus percent directed away ([2]; bFGF 500 ng): marked blood vessel orientation toward the pellet
percentage of CAMs showing reorientation and/or growth of blood vessels towards the pellet ([2]; positive control, 500 ng/pellet): 100%
percent of secondary vessels deviated toward the pellet ([2]; secondary vessels, bFGF 500 ng): over 90%
percent of tertiary vessels pointing in the direction of the pellet ([2]; tertiary vessels, bFGF 500 ng): less than 80%

B1: cCAF: Chicken chemotactic and angiogenic factor, product of the 9E3 gene, 9 kDa CXC chemokine (SEQ ID NO:1) (protein)
chain: MNGKLGAVLALLLVSAALSQGRTLVKMGNELRCQCISTHSKFIHPKSIQDVKLTPSGPHCKNVEIIATLKDGREVCLDPTAPWVQLIVKALMAKAQLNSDAPL
modifications: Gallusgallus
new sprouting of blood vessels of the CAM ([2]; 450 ng per pellet): extensive new sprouting
chemotaxis for leukocytes (leukocytes; [6]): chemotactic for monocyte/macrophages and lymphocytes
period for which the 9 kDa form is stable [4]: 24 h
